Measured values reported in PMC10217546, “Antioxidant Activities of Dihydromyricetin Derivatives with Different Acyl Donor Chain Lengths Synthetized by Lipozyme TL IM” (Foods, 2023).
Like-named read-outs stand apart in the source and are kept apart here. Marks after values point to notes of the source that are not given here.

Assays:
[1] = Partition coefficient of lipids and water (log P), n-octanol/water by HPLC; type: physicochemical
Protocol: The lipophilicity of DHM and its derivatives was evaluated using log P, which was determined by a previous method with several modifications. Two milligrams of sample were dissolved in n-octanol solution (4 mL) saturated by water and analyzed using HPLC at 298 nm (A0). The n-octanol solution (1 mL) saturated by water containing the sample was mixed with water solution (1 mL) saturated by n-octanoland and then shaken using a constant-temperature water bath oscillator (Tianjin, China) at 30 °C for 24 h at 150 rpm. The ultraviolet absorbance of the upper solution was analyzed at 298 nm (Ax). The calculation equation of log P is as follows:(1) log P=log Ax / (A0 − Ax)

[2] = DPPH radical scavenging ability; details: for IC50 DPPH: DPPH radical scavenging test; for scavenging rate of DPPH free radicals: sample concentration 20 μg/mL, 30 min in the dark, 517 nm
Protocol: The method used to determine the abilities of DHM and its acylated derivatives was a previous method with some modifications. Two milliliters of DPPH (0.065 mg/mL) and 2 mL of the sample (3, 5, 10, 15, and 20 μg/mL) were added to a centrifuge tube and described at 517 nm after 30 min of reaction in a dark environment. Vc (a water-soluble antioxidant) and TBHQ (a lipid soluble antioxidant) were used as controls. (2) DPPH radical scavenging activity (%) =(1−A1 - A2/A0) × 100 where A0, A1, and A2 represent the absorbance values of the DPPH-ethanol, DPPH-sample, and sample-ethanol mixtures, respectively.

[3] = ABTS radical scavenging ability; details: ABTS radical scavenging test, 30 °C, 6 min, 734 nm
Protocol: The ability of DHM and its acylated derivatives to scavenge ABTS radicals was evaluated using a previous method with some modification. Samples (0.1 mL, 0.01, 0.02, 0.04, 0.06, and 0.08 mg/mL) were added to 3.9 mL of ABTS solution and measured at 734 nm after incubation at 30 °C for 6 min. Vc (a water-soluble antioxidant) and TBHQ (a lipid soluble antioxidant) were used as controls. (3) ABTS radical scavenging activity (%) =(1−A1 - A2/A0) × 100 where A0, A1, and A2 represent the absorbance values of the ABTS-ethanol, ABTS-samples, and samples-ethanol mixtures, respectively.

[4] = test system: L-02 cells; test: Cellular antioxidant activity (CAA) assay in L-02 cells; type: cell-based, Human
Protocol: Human normal hepatocytes (L-02 cells, passage number 4) were purchased from Cell Bank of Shanghai Institutes for Biological Sciences, Chinese Academy of Sciences (Shanghai, China) and cultured in RPMI 1640 medium (Invitrogen, Carlsbad, CA, USA) supplemented with 10% FBS and 1% penicillin-streptomycin double antibody and were cultured at 37 °C in 5% CO2.
The CAA assay was made using the method of Wolfe and Liu with modifications. L-02 cells were inoculated in black 96-well plates (6 × 10^4 /well, 100 μL) and incubated for 24 h. After removing culture medium, and the cells were washed with PBS and treated with the samples and DCFH-DA (25 μmol/L) for 1 h. Then, the cells were divided into two groups. One group was washed with PBS, and ABAP (600 μmol/L, 100 μL) was added to each well. Another group was only treated with adding 100 μL of ABAP (600 μmol/L) without washing. The black 96-well plates were measured by a Thermo Scientific Fluoroskan Ascent FL (Thermo Fisher Scientific, Waltham, MA, USA) every 5 min for 1 h at an emission wavelength of 538 nm and an excitation wavelength of 485 nm. Three control wells and one blank well were set. The control well was made up of the cells treated with ABAP but without samples, and the blank well was made up of the cells treated without ABAP and samples. Quercetin was used as the positive control. (6) CAA unit=1 - ∫SA/∫CA × 100 where ∫SA represents the area integral under the sample fluorescence value versus time curve and ∫CA represents the area integral under the control fluorescence value versus time curve.

[5] = n-octanol/water, shaken at 30 °C for 24 h, HPLC at 298 nm
[6] = PBS wash between antioxidant and ABAP treatments, read-out: EC50 CAA Unit Wash
[7] = no PBS wash between antioxidant and ABAP treatments, read-out: EC50 CAA Unit No Wash
[8] = Homo sapiens, L02, PBS wash between antioxidant and ABAP treatments, read-out: EC50 CAA Unit Wash
[9] = Homo sapiens, L02, no PBS wash between antioxidant and ABAP treatments, read-out: EC50 CAA Unit No Wash

SMILES: CC(=O)OC1C(=O)c2c(O)cc(O)cc2OC1c1cc(O)c(O)c(O)c1 (stereo not drawn) [C2-DHM, 3-O-acetyl-DHM]
- log P [1, 5]: 1.32
- IC50 DPPH [2]: 9.07 ± 0.10 ^bc μg/mL
- scavenging rate of DPPH free radicals [2]: 92.58 ± 1.33%
- IC50 ABTS [3]: 58.29 ± 2.20 ^a μg/mL
- EC50 [4, 6]: 172 ± 8.84 µM
- EC50 [4, 7]: 77.8 ± 3.81 µM

SMILES: CCCC(=O)OC1C(=O)c2c(O)cc(O)cc2OC1c1cc(O)c(O)c(O)c1 (stereo not drawn) [C4-DHM, 3-O-butyryl-DHM]
- log P [1]: 1.50
- IC50 DPPH [2]: 9.08 ± 0.25 ^bc μg/mL
- scavenging rate of DPPH free radicals [2]: 92.70 ± 0.79%
- IC50 ABTS [3]: 56.30 ± 1.03 ^a μg/mL
- EC50 [4, 6]: 60.7 ± 0.64 µM
- EC50 [4, 7]: 60.8 ± 6.23 µM

SMILES: CCCCCC(=O)OC1C(=O)c2c(O)cc(O)cc2OC1c1cc(O)c(O)c(O)c1 (stereo not drawn) [C6-DHM, 3-O-hexanoyl-DHM]
- log P [1, 5]: 1.67
- IC50 DPPH [2]: 11.17 ± 0.04 ^bc μg/mL
- scavenging rate of DPPH free radicals [2]: 82.53 ± 1.98%
- IC50 ABTS [3]: 77.22 ± 1.46 ^a μg/mL
- EC50 [4, 6]: 52.9 ± 2.69 µM
- EC50 [4, 7]: 65.2 ± 3 µM

SMILES: CCCCCCCC(=O)OC1C(=O)c2c(O)cc(O)cc2OC1c1cc(O)c(O)c(O)c1 (stereo not drawn) [C8-DHM, 3-O-octanoyl-DHM]
- log P [1]: 1.73
- IC50 DPPH [2]: 12.69 ± 0.09 ^c μg/mL
- scavenging rate of DPPH free radicals [2]: 74.14 ± 0.40%
- IC50 ABTS [3]: 80.15 ± 0.42 ^a μg/mL
- EC50 [4, 6]: 35.14 ± 0.29 µM
- EC50 [4, 7]: 45.4 ± 0.74 µM

SMILES: CCCCCCCCCCCC(=O)OC1C(=O)c2c(O)cc(O)cc2OC1c1cc(O)c(O)c(O)c1 (stereo not drawn) [C12-DHM, 3-O-lauroyl-DHM]
- log P [1]: 1.80
- IC50 DPPH [2]: 35.93 ± 5.63 ^d μg/mL
- scavenging rate of DPPH free radicals [2]: 29.62 ± 4.88%
- IC50 ABTS [3]: 360.69 ± 50.13 ^b μg/mL
- EC50 [4, 6]: 122 ± 9.48 µM
- EC50 [4, 7]: 234 ± 9.69 µM

SMILES: O=C1c2c(O)cc(O)cc2O[C@H](c2cc(O)c(O)c(O)c2)[C@H]1O [DHM, Dihydromyricetin]
- logP at 24 h [1, 5]: 0.81
- IC50 DPPH [2]: 9.04 ± 0.09 ^bc μg/mL
- scavenging rate of DPPH free radicals [2]: 93.37 ± 1.83%
- IC50 ABTS [3]: 46.51 ± 2.19 ^a μg/mL
- EC50 [4, 8]: 226 ± 4.67 µM
- EC50 [4, 9]: 90.2 ± 5.02 µM

SMILES: O=c1c(O)c(-c2ccc(O)c(O)c2)oc2cc(O)cc(O)c12 [Quercetin, reference compound]
- EC50 [4, 8]: 29 ± 0.36 µM
- EC50 [4, 9]: 33.9 ± 3.67 µM

SMILES: CC(C)(C)c1cc(O)ccc1O [TBHQ, tert-butylhydroquinone, reference compound]
- IC50 DPPH [2]: 7.55 ± 0.18 ^ab μg/mL
- IC50 ABTS [3]: 79.34 ± 3.37 ^a μg/mL

SMILES: O=C1O[C@H]([C@@H](O)CO)C(O)=C1O [Vc, L-ascorbic acid, reference compound]
- IC50 DPPH [2]: 4.23 ± 1.38 ^a μg/mL
- IC50 ABTS [3]: 61.02 ± 2.15 ^a μg/mL
